Measurements: patent US12252701B2, “Chimeric antigen receptor T cell therapy” (KITE PHARMA, INC., priority 2020, dated 2025)
Read-outs that look alike come from different tables or passages of the source.

Columns and labels:
[1] = Clinical pharmacokinetic data converted to in vitro concentrations; details: human, in vivo
Source text: Given the different potencies of the JAK inhibitors and different pharmacokinetic properties for each drug, it was sought to test each drug at a relevant range of physiological concentrations based on clinical dosing and reported pharmacokinetic data from repeat dose studies. Reported Cmax values in patient sera were converted to in vitro concentrations and adjusted for reported plasma protein binding.

[2] = in vitro; details: human, CAR-T cells
Method: (§1) 96-well plates were coated with 100 μl of KIP-1 antibody per well at 1 μg/ml in PBS and plates were incubated at 4° C. overnight. CAR-T cells were thawed and were rested in ImmunoCult expansion medium and incubated overnight at 37° C. Cells were then counted and resuspended at 2 million cells/ml and seed at 200,000 cells per well in 100 μl of expansion medium with 10 ng/ml recombinant IL2. For groups treated with KIP-1, 100 μl of expansion medium were added with 2× final drug dilutions. For CD3/CD28 treated groups, 100 μl of expansion media were added with 2× final drug dilutions containing 25 μl/ml of CD3/CD28 T cell activator from StemCell Technologies. Cells were then incubated at 37° C. After 4 days, cells were counted and diluted 1 to 8-fold in expansion media and then transferred to a 24-well plate. Cell counts were repeated at day 7 and transferred to T25 flasks. On day 11, all cells were harvested and counted.

[3] = cited from earlier work
[4] = test system: CAR-T cells; assay: CAR-T cell expansion assay (KIP-1 or CD3/CD28 stimulation); details: for % viability: CD3/CD28; for % viabili.: CD3/CD28 stimulation; for % viabi.: KIP-1 stimulation
Method: as §1

[5] = test system: CD19 CAR T cells; assay: CAR T cell cytokine production (Luminex) under CD19 K562, KIP-1 or CD2/3/28 stimulation; details: 72 h; for IC50: Homo sapiens, T-cell
Method: Cryopreserved healthy donor CLP CD19 CAR T cells were thawed and rested overnight in 100 U/ml of IL-2 at 1×10^6/ml. 2.5×10^5 CD19 CART cells were plated in 96-well RB plate wells in a total volume of 200 μl of R10 culture media. […] CD19 CART cell cytokine production was allowed to proceed through 72 hours in the presence of stimulator and JAKi or steroid. Following 72 h of culture, 100 μl of the cell supernatant of each well were harvested and stored at −80° C. for later Luminex/Bioplex-200 cytokine analysis. Briefly, stored supernatants were thawed and 50 μl of the sample was assayed for cytokines using a ThermoFisher Procarta Plex 19-plex human cytokine assay kit (ThermoFisher, Carlsbad, CA) according to kit manufacturer's instructions and detected using a BioRad Bioplex-200 instrument. The data points generated from the luminex cytokine assay were transferred to a GraphPad PRISM IC50 dose-response curve analysis to generate IC50 or potency values for the JAKi's and steroids tested.

PPB adj. in Vitro concentration [1]: 97 nM | clinically relevant dose level (in vitro concentration) [1]: ~100 nM | IC50 ([5]; read-out: Suppression of cytokine production, GMCSF (IC50), CD3/CD28 stimulation, 72 h): < 100 nM | IC50 ([5]; read-out: Suppression of cytokine production, GMCSF (IC50), K562-CD19 stimulation, 72 h): > 10000 nM | IC50 ([5]; read-out: Suppression of cytokine production, GMCSF (IC50), KIP-1 stimulation, 72 h): < 100 nM | IC50 ([5]; read-out: Suppression of cytokine production, GzB (IC50), CD3/CD28 stimulation, 72 h): < 100 nM | IC50 ([5]; read-out: Suppression of cytokine production, GzB (IC50), K562-CD19 stimulation, 72 h): 1030 nM | IC50 ([5]; read-out: Suppression of cytokine production, GzB (IC50), KIP-1 stimulation, 72 h): > 10000 nM | IC50 ([5]; read-out: Suppression of cytokine production, IFNg (IC50), CD3/CD28 stimulation, 72 h): > 10000 nM | IC50 ([5]; read-out: Suppression of cytokine production, IFNg (IC50), KIP-1 stimulation, 72 h): > 10000 nM | IC50 ([5]; read-out: Suppression of cytokine production, IL-2Ra (IC50), CD3/CD28 stimulation, 72 h): < 100 nM | IC50 ([5]; read-out: Suppression of cytokine production, IL-2Ra (IC50), K562-CD19 stimulation, 72 h): < 100 nM | IC50 ([5]; read-out: Suppression of cytokine production, IL-2Ra (IC50), KIP-1 stimulation, 72 h): < 100 nM | IC50 ([5]; read-out: Suppression of cytokine production, IL-6 (IC50), CD3/CD28 stimulation, 72 h): < 100 nM | IC50 ([5]; read-out: Suppression of cytokine production, IL-6 (IC50), KIP-1 stimulation, 72 h): < 100 nM | IC50 ([5]; read-out: Suppression of cytokine production, IL-8 (IC50), CD3/CD28 stimulation, 72 h): < 100 nM | IC50 ([5]; read-out: Suppression of cytokine production, IL-8 (IC50), K562-CD19 stimulation, 72 h): < 100 nM | IC50 ([5]; read-out: Suppression of cytokine production, IL-8 (IC50), KIP-1 stimulation, 72 h): < 100 nM | IC50 ([5]; read-out: Suppression of cytokine production, IL-10 (IC50), CD3/CD28 stimulation, 72 h): < 100 nM | IC50 ([5]; read-out: Suppression of cytokine production, IL-10 (IC50), K562-CD19 stimulation, 72 h): < 100 nM | IC50 ([5]; read-out: Suppression of cytokine production, IL-10 (IC50), KIP-1 stimulation, 72 h): < 100 nM | IC50 ([5]; read-out: Suppression of cytokine production, MCP-1 (IC50), CD3/CD28 stimulation, 72 h): < 100 nM | IC50 ([5]; read-out: Suppression of cytokine production, MCP-1 (IC50), K562-CD19 stimulation, 72 h): < 100 nM | IC50 ([5]; read-out: Suppression of cytokine production, MCP-1 (IC50), KIP-1 stimulation, 72 h): < 100 nM | IC50 ([5]; read-out: Suppression of cytokine production, MIG (IC50), CD3/CD28 stimulation, 72 h): < 100 nM | IC50 ([5]; read-out: Suppression of cytokine production, MIG (IC50), K562-CD19 stimulation, 72 h): < 100 nM | IC50 ([5]; read-out: Suppression of cytokine production, MIG (IC50), KIP-1 stimulation, 72 h): < 100 nM | IC50 ([5]; read-out: Suppression of cytokine production, MIP-1a (IC50), CD3/CD28 stimulation, 72 h): < 100 nM | IC50 ([5]; read-out: Suppression of cytokine production, MIP-1a (IC50), K562-CD19 stimulation, 72 h): < 100 nM | IC50 ([5]; read-out: Suppression of cytokine production, MIP-1a (IC50), KIP-1 stimulation, 72 h): 708 nM | IC50 ([5]; read-out: Suppression of cytokine production, MIP-1b (IC50), CD3/CD28 stimulation, 72 h): < 100 nM | IC50 ([5]; read-out: Suppression of cytokine production, MIP-1b (IC50), K562-CD19 stimulation, 72 h): < 100 nM | IC50 ([5]; read-out: Suppression of cytokine production, MIP-1b (IC50), KIP-1 stimulation, 72 h): 146 nM | IC50 ([5]; read-out: Suppression of cytokine production, Perforin (IC50), CD3/CD28 stimulation, 72 h): < 100 nM | IC50 ([5]; read-out: Suppression of cytokine production, Perforin (IC50), K562-CD19 stimulation, 72 h): < 100 nM | IC50 ([5]; read-out: Suppression of cytokine production, Perforin (IC50), KIP-1 stimulation, 72 h): < 100 nM | IC50 ([5]; read-out: Suppression of cytokine production, TNFa (IC50), CD3/CD28 stimulation, 72 h): < 100 nM | IC50 ([5]; read-out: Suppression of cytokine production, TNFa (IC50), K562-CD19 stimulation, 72 h): < 100 nM | IC50 ([5]; read-out: Suppression of cytokine production, TNFa (IC50), KIP-1 stimulation, 72 h): < 100 nM | Suppression of cytokine production, IFNg (IC50) ([5]; K562-CD19 stimulation): Suppress | Suppression of cytokine production, IL-6 (IC50) ([5]; K562-CD19 stimulation): Suppress
Compound: CC[C@@H]1CN(C(=O)NCC(F)(F)F)C[C@@H]1c1cnc2cnc3[nH]ccc3n12 [upadacitinib]
viability at 0 day, 50 nM [2]: 75% | viability at 0 day, 100 nM [2]: 75% | viability at 4 day, 50 nM [2]: 63.2% | viability at 4 day, 100 nM [2]: 59.9% | viability at 8 day, 50 nM [2]: 65.3% | viability at 8 day, 100 nM [2]: 62% | viability at 12 day, 50 nM [2]: 79% | viability at 12 day, 100 nM [2]: 67.5% | Cmax ([3]; clinical dosing, patient sera, repeat dose studies): 73.9 ng/mL | Protein binding ([3]; plasma protein binding, reported): ~50% | % viability ([4]; dose 50 nM, day 4): 74.4% | % viability ([4]; dose 50 nM, day 8): 69.5% | % viability ([4]; dose 50 nM, day 12): 80.6% | % viability ([4]; dose 100 nM, day 4): 64.1% | % viability ([4]; dose 100 nM, day 8): 69.2% | % viability ([4]; dose 100 nM, day 12): 66.4% | % viabili. ([4]; 10 nM, Day 0): 84% | % viabili. ([4]; 10 nM, Day 4): 92.6% | % viabili. ([4]; 10 nM, Day 8): 88.4% | % viabili. ([4]; 10 nM, Day 12): 71.6% | % viabili. ([4]; 20 nM, Day 0): 84% | % viabili. ([4]; 20 nM, Day 4): 93.8% | % viabili. ([4]; 20 nM, Day 8): 92% | % viabili. ([4]; 20 nM, Day 12): 72.7% | % viabili. ([4]; 40 nM, Day 0): 84% | % viabili. ([4]; 40 nM, Day 4): 91.4% | % viabili. ([4]; 40 nM, Day 8): 77% | % viabili. ([4]; 40 nM, Day 12): 73.2% | % viabili. ([4]; 60 nM, Day 0): 84% | % viabili. ([4]; 60 nM, Day 4): 90.6% | % viabili. ([4]; 60 nM, Day 8): 90.5% | % viabili. ([4]; 60 nM, Day 12): 76.3% | % viabili. ([4]; 80 nM, Day 0): 84% | % viabili. ([4]; 80 nM, Day 4): 88.3% | % viabili. ([4]; 80 nM, Day 8): 86.4% | % viabili. ([4]; 80 nM, Day 12): 75% | % viabili. ([4]; 100 nM, Day 0): 84% | % viabili. ([4]; 100 nM, Day 4): 84.2% | % viabili. ([4]; 100 nM, Day 8): 84.3% | % viabili. ([4]; 100 nM, Day 12): 72.5% | % viabi. ([4]; 10 nM, Day 0): 84% | % viabi. ([4]; 10 nM, Day 4): 85.2% | % viabi. ([4]; 10 nM, Day 8): 72.1% | % viabi. ([4]; 10 nM, Day 12): 72.7% | % viabi. ([4]; 20 nM, Day 0): 84% | % viabi. ([4]; 20 nM, Day 4): 82.1% | % viabi. ([4]; 20 nM, Day 8): 70.1% | % viabi. ([4]; 20 nM, Day 12): 74.8% | % viabi. ([4]; 40 nM, Day 0): 84% | % viabi. ([4]; 40 nM, Day 4): 79.3% | % viabi. ([4]; 40 nM, Day 8): 59.3% | % viabi. ([4]; 40 nM, Day 12): 73.8% | % viabi. ([4]; 60 nM, Day 0): 84% | % viabi. ([4]; 60 nM, Day 4): 67.9% | % viabi. ([4]; 60 nM, Day 8): 76.4% | % viabi. ([4]; 60 nM, Day 12): 68.9% | % viabi. ([4]; 80 nM, Day 0): 84% | % viabi. ([4]; 80 nM, Day 4): 70.9% | % viabi. ([4]; 80 nM, Day 8): 68.8% | % viabi. ([4]; 80 nM, Day 12): 62.5% | % viabi. ([4]; 100 nM, Day 0): 84% | % viabi. ([4]; 100 nM, Day 4): 59.3% | % viabi. ([4]; 100 nM, Day 8): 60.9% | % viabi. ([4]; 100 nM, Day 12): 61.7% | concentration at and above which severe effects on expansion were seen ([4]; further dose titrations, depending on the mode of stimulation): 20 to 40 nM
